Measurements taken from publication PMC10914731, “Homo-BacPROTAC-induced degradation of ClpC1 as a strategy against drug-resistant mycobacteria” (Nature Communications, 2024).
In brackets after ≈: the same amount, converted by molar mass. Several values for one entry are separate records, joined by “and”; a condition that tells them apart may be missing. Equal values may be shown once. Read-outs that look alike come from different tables or passages of the source.

Key:
[1] = tested on: M. tuberculosis H37Rv (ATCC 27294); test: microbe, parasite or virus in culture; assay type: cell-based
[2] = in vitro; conditions: human
Outline: (§1)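 Values are bidirectional Caco-2 apparent permeabilities, P(A−B) and P(B−A), given in 10^-6 cm s-1. The efflux ratio divides P(B−A) by P(A−B), and intrinsic permeability averages the two directions.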

[3] = tested on: Caco-2 monolayers; test: in vitro
Outline: as §1

[4] = assay type: in vitro ADME, Human
[5] = tested on: Msm 607; test: microbe, parasite or virus in culture; assay type: cell-based
[6] = assay type: in vitro ADME, Rat
[7] = Hepatocyte stability, mice; assay type: in vitro ADME
Outline: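 Cryopreserved mouse hepatocytes (about 1 million cells/mL, pH 7.4, 50% species serum) incubated with 1 µM compound, DMSO <0.05%, at 37 °C for up to 6 h, sampled at 6 time points. Parent remaining measured by HPLC-MS/MS; half-life converted via well-stirred liver model to clearance as % Qh.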

[8] = target: ClpC1 NTD protein (M. tuberculosis) (Mycobacterium tuberculosis, UniProt P9WPC9); test: biochemical; assay type: binding
[9] = tested on: Msm 700084; test: microbe, parasite or virus in culture; assay type: cell-based
[10] = target: ClpC1-NTD substrate, M. tuberculosis ClpC1P1P2 (Mycobacterium tuberculosis, UniProt P9WPC9); test: biochemical; assay type: biochemical
[11] = target: His6-tagged ClpC1-NTD substrate, M. smegmatis ClpC1P1P2 (UniProt A0R574+P9WPC9); test: biochemical; assay type: biochemical
[12] = Microsomal stability, human; assay type: in vitro ADME
Procedure: (§2) The kinetics of compound degradation in liver microsomes is assessed in an assay with 1 µmol/l of compound and 0.5 mg/ml liver microsomes in a medium of 100 mM Tris-HCl pH 7.5, 6.5 mM MgCl2 and 1 mM NADPH at 37 °C. The reaction is stopped at multiple time points by adding acetonitrile. After centrifugation, the compound concentration is measured in the supernatants by high-performance liquid chromatography (HPLC) tandem mass spectrometry (MS/MS). The results are fitted to a first-order decay and the half-lives are converted to clearance (stated as % of the liver blood flow (%Qh)) using the well-stirred liver model.

[13] = assay type: in vitro ADME, Mice
Procedure: as §2

[14] = assay type: in vitro ADME, Rat; remark: listed apart in the source
Procedure: as §2

[15] = Mycobacterium tuberculosis, Mtb H37Rv (Supplementary Table 2), read-out: MIC Mtb
[16] = Mycolicibacterium smegmatis, 607, read-out: MIC Msm 607
[17] = Mycolicibacterium smegmatis, 700084, single determinations, read-out: Msm 700084 MIC
[18] = Mycolicibacterium smegmatis, 700084, read-out: MIC Msm 700084
[19] = read-out: DC50, single measurements

Chain of ClpC1-NTD substrate, M. tuberculosis ClpC1P1P2 (P9WPC5 whole entry): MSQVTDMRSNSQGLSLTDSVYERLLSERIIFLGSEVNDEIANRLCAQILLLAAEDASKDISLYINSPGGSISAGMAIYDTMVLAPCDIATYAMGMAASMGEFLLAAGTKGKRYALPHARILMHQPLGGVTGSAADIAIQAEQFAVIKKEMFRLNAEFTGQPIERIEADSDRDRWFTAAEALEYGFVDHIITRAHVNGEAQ
Chain of ClpC1-NTD substrate, M. tuberculosis ClpC1P1P2 (P9WPC9 whole entry): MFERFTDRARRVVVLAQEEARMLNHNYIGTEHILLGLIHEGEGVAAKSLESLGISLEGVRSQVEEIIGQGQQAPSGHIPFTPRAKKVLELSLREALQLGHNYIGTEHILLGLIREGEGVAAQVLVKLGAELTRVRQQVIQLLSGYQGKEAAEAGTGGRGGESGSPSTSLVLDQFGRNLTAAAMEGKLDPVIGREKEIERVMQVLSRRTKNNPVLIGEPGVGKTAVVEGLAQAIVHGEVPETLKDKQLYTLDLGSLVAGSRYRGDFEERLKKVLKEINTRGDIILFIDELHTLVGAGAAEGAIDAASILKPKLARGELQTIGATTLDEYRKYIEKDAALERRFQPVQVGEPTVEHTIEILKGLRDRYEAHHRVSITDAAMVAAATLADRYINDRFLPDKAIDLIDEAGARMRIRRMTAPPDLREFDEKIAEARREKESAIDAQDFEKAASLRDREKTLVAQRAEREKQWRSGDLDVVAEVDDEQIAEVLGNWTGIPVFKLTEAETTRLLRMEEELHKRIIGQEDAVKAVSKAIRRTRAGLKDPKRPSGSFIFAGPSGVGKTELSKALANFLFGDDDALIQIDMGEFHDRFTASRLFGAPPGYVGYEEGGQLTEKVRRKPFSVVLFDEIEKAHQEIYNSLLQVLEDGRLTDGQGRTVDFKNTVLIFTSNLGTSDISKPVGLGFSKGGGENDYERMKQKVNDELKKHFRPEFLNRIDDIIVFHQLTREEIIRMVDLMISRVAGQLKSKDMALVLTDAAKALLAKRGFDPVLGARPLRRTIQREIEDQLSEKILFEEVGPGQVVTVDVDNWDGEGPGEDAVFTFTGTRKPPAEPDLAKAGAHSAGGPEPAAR
Chain of ClpC1-NTD substrate, M. tuberculosis ClpC1P1P2 (P9WPC3 whole entry, further chain): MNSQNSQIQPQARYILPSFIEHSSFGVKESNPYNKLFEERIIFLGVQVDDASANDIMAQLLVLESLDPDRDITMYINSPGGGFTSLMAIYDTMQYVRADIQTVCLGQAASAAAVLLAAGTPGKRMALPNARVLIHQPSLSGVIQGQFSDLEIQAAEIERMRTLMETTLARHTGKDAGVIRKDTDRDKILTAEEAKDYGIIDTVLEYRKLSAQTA
Chain of ClpC1 NTD protein (M. tuberculosis) (P9WPC9 1-156, looked up, natural form): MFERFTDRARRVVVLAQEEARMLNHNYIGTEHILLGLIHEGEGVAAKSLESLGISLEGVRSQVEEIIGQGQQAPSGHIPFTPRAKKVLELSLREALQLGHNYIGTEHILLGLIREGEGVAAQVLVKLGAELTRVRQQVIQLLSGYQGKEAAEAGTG
Chain of His6-tagged ClpC1-NTD substrate, M. smegmatis ClpC1P1P2 (P9WPC9 1-156, looked up, natural form): as above
Chain of His6-tagged ClpC1-NTD substrate, M. smegmatis ClpC1P1P2 (A0R574 whole entry): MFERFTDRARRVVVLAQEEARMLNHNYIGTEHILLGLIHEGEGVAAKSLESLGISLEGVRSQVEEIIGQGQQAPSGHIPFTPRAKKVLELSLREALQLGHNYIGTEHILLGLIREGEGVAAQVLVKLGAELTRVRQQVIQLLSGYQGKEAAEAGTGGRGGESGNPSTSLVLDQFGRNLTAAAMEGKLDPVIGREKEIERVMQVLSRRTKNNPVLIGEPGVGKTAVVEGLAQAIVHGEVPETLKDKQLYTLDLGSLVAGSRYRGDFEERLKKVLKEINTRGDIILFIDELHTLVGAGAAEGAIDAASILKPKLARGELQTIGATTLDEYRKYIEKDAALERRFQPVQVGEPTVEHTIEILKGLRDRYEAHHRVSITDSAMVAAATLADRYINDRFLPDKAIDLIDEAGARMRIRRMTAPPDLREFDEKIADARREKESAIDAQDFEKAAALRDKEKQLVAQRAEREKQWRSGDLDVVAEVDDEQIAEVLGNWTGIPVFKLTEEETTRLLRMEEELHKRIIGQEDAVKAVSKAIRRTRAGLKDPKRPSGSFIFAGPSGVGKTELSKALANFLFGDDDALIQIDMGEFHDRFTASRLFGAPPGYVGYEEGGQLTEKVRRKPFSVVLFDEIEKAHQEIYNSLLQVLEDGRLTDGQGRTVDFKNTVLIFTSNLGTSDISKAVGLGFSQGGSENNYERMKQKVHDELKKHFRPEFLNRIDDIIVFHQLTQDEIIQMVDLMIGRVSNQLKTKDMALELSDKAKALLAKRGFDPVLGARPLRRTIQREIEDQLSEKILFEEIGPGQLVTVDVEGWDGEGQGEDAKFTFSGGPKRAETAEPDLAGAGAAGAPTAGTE

In the case of CO[C@H](c1ccc(OCc2cn(CCCCCn3cc(COc4ccc([C@@H](OC)[C@@H]5NC(=O)[C@H](C)NC(=O)[C@H](C[C@@H](C)CO)N(C)C(=O)[C@H](Cc6cn(C)c7ccccc67)NC(=O)[C@H](C(C)C)NC(=O)[C@H](CC(C)C)N(C)C(=O)[C@H](C(C)C)NC5=O)cc4)nn3)nn2)cc1)[C@@H]1NC(=O)[C@H](C)NC(=O)[C@H](C[C@@H](C)CO)N(C)C(=O)[C@H](Cc2cn(C)c3ccccc23)NC(=O)[C@H](C(C)C)NC(=O)[C@H](CC(C)C)N(C)C(=O)[C@H](C(C)C)NC1=O [SI-40], the MIC [1, 15] is reported as 0.2 µM (≈ 0.419 µg/mL), the MIC ([1]; Mycobacterium tuberculosis, single determinations, read-out: Mtb MIC) is reported as 0.195 µM (≈ 0.409 µg/mL) and the Papp A→B ([2]; Caco-2, Caco-2 permeability P (A-B), apical to basolateral) is reported as < 2.5 ×10⁻⁶ cm/s. The Papp B→A ([2]; Caco-2, Caco-2 permeability P (B-A), basolateral to apical) was < 0.7 ×10⁻⁶ cm/s, the “Caco-2 Int. Perm” value ([3]; mean value of P(A−B) and P(B−A)) was 1.60 10-6 cm s-1 and the “Hepatocyte Stability Human QH” value ([4]; Human) was 25.024%. The MIC [5, 16] was > 50 µM, the MIC ([5]; Mycolicibacterium smegmatis, 607, read-out: Msm 607 MIC, single determinations) was > 50 µM and the “Hepatocyte Stability Rat QH” value ([6]; Rat) was 11.911%. The “Hepatocyte Rat” value ([6]; clearance in hepatocytes) was 12 %Qh, the “Hepatocyte Mice” value ([7]; clearance in hepatocytes) was 15 %Qh and the Kd ([8]; SPR (Supplementary Table 1), read-out: KD ClpC1-NTD Mean ± SD) was 0.66 ± 0.04 nM. The “koff ClpC1-NTD” value ([8]; SPR, single independent measurements) was 0.0009 s⁻¹, the Kd ([8]; SPR, single independent measurements, read-out: KD ClpC1-NTD) was 0.686 nM and 0.636 nM and the koff ([8]; SPR, single independent measurements, read-out: koff ClpC1-NTD) was 0.001 s⁻¹. The MIC [9, 17] was > 50 µM and the MIC [9, 18] was > 50 µM.

For COC(c1ccc(OCc2cn(CCOCCOCCOCCOCCn3cc(COc4ccc(C(OC)C5NC(=O)C(C)NC(=O)C(CC(C)CO)N(C)C(=O)C(Cc6cn(C)c7ccccc67)NC(=O)C(C(C)C)NC(=O)C(CC(C)C)N(C)C(=O)C(C(C)C)NC5=O)cc4)nn3)nn2)cc1)C1NC(=O)C(C)NC(=O)C(CC(C)CO)N(C)C(=O)C(Cc2cn(C)c3ccccc23)NC(=O)C(C(C)C)NC(=O)C(CC(C)C)N(C)C(=O)C(C(C)C)NC1=O (stereo not shown) [SI-39], the MIC ([1]; Mtb H37Rv (Supplementary Table 2), read-out: MIC Mtb) was 0.2 µM (≈ 0.446 µg/mL), the MIC ([1]; single determinations, read-out: Mtb MIC) was 0.195 µM (≈ 0.435 µg/mL) and the “CACO permeability PEAB” value ([3]; Caco-2) was <0.000 cm/sec. For the same molecule, the “CACO permeability PEBA” value ([3]; Caco-2) was <0.000 cm/sec, the “Caco-2 Int. Perm” value ([3]; Caco-2) was 2.9 10-6 cm s-1 and the “Caco-2 permeability P (A-B)” value ([3]; Caco-2) was < 4.1 10-6 cm s-1. For the same molecule, the “Caco-2 permeability P (B-A)” value ([3]; Caco-2) was < 1.7 10-6 cm s-1, the “1-Dmax, Mean” value [10] was 73% and the “1-Dmax, single measurements” value [10] was 79.7% and 65.9% and 73.8%. For the same molecule, the DC50 ([10]; read-out: DC50, Mean) was 7700 nM, the DC50 [10, 19] was 8500 nM and 5900 nM and 8700 nM and the “Hepatocyte Human” value [4] was 12 %Qh. For the same molecule, the “Hepatocyte Stability Human QH” value [4] was 12.386%, the “Msm 607 MIC” value ([5]; single determinations) was 12.500 µM and the “Hepatocyte Rat” value [6] was 6 %Qh. For the same molecule, the “Hepatocyte Stability Rat QH” value [6] was 6.192%, the “1-Dmax, Mean” value [11] was 88% and the “1-Dmax, single measurements” value [11] was 79.0% and 91.3% and 94.4%. For the same molecule, the DC50 ([11]; read-out: DC50, Mean) was 5800 nM, the DC50 [11, 19] was 6500 nM and 5300 nM and 5600 nM and the “Hepatocyte Mice” value ([7]; clearance in hepatocytes) was 15 %Qh. The “koff ClpC1-NTD” value [8] was 1E-3 7E-4 1/s, the Kd ([8]; read-out: KD ClpC1-NTD) was 0.477 nM and 0.422 nM and the Kd ([8]; read-out: KD ClpC1-NTD Mean ± SD) was 0.45 ± 0.04 nM. The MIC ([9]; single determinations, read-out: Msm 700084 MIC) was 12.500 µM (≈ 27.9 µg/mL) and the “Microsomal Stability Human QH” value [12] was 39.3%.

With COC(c1ccccc1)C1NC(=O)C(C)NC(=O)C(CC(C)CO)N(C)C(=O)C(Cc2cn(CC=CCn3cc(CC4NC(=O)C(C(C)C)NC(=O)C(CC(C)C)N(C)C(=O)C(C(C)C)NC(=O)C(C(OC)c5ccccc5)NC(=O)C(C)NC(=O)C(CC(C)CO)N(C)C4=O)c4ccccc43)c3ccccc23)NC(=O)C(C(C)C)NC(=O)C(CC(C)C)N(C)C(=O)C(C(C)C)NC1=O (stereo not shown) [Compound 15] the MIC ([1]; Mycobacterium tuberculosis, M. tuberculosis H37Rv strain, read-out: MIC Mtb H37Rv Mean ± SD) was 0.2 ± 0.1 µM (≈ 0.372 µg/mL), the MIC [1, 15] was 0.2 ± 0.1 µM (≈ 0.372 µg/mL) and the MIC ([1]; individual measurements (source data), read-out: Mtb MIC) was 0.200 µM and 0.390 µM and 0.097 µM (2×). For the same molecule, the “Caco-2 Efflux ratio” value ([3]; human, Caco-2) was 0.8, the “Caco-2 Int. Perm” value ([3]; human, Caco-2) was 2.0 and the “Caco-2 permeability P (A-B)” value ([3]; human, Caco-2) was 2.2. The “Caco-2 permeability P (B-A)” value ([3]; human, Caco-2) was 1.8, the “Microsomal Stability Mouse QH” value ([13]; Mouse) was <24.200% and the “Microsomal Stability Mice” value ([13]; clearance in microsomes) was < 24 %Qh. For the same molecule, the “Hepatocyte Human” value ([4]; human, pH 7.4) was 12 %Qh, the “Hepatocyte Stability Human QH” value ([4]; human, pH 7.4) was 12.386% and the MIC [5, 16] was 2.3 ± 0.9 µM (≈ 4.27 µg/mL). For the same molecule, the “Hepatocyte Rat” value ([6]; rat, pH 7.4) was 6 %Qh, the “Hepatocyte Stability Rat QH” value ([6]; rat, pH 7.4) was 6.192% and the “Hepatocyte Mice” value ([7]; mouse, pH 7.4) was 15 %Qh. For the same molecule, the “Hepatocyte Stability Mouse QH” value ([7]; mouse, pH 7.4) was 15.001%, the “Microsomal Stability Rat QH” value ([14]; Rat) was <23.100% and the “Microsomal Stability Rat” value ([14]; clearance in microsomes) was < 23 %Qh. The Kd ([8]; SPR, individual measurements (source data), read-out: KD ClpC1-NTD) was 1.81 nM and 0.654 nM, the Kd ([8]; SPR, read-out: ClpC1-NTD KD Mean ± SD) was 1.2 ± 0.8 nM and the MIC [9, 17] was 50 µM (≈ 92.9 µg/mL). For the same molecule, the MIC [9, 18] was 50 µM (≈ 92.9 µg/mL), the “Microsomal Stability Human QH” value [12] was <24.400% and the “Microsomal Stability Human” value ([12]; clearance in microsomes) was < 24 %Qh.
